Experimental data: PMC7763331, “First Evidence of a Protective Effect of Plant Bioactive Compounds against H2O2-Induced Aconitase Damage in Durum Wheat Mitochondria” (Antioxidants, 2020)

What was measured:
m-aconitase [1] = molecular target: T1, m-aconitase (Sus scrofa, UniProt P16276); experiment: aconitase/isocitrate dehydrogenase coupled assay, NADPH absorbance at […] nm; format: biochemical; conditions: pH 8.0, 25 °C, 20 mM citrate; 10 min pre-incubation, no H2O2; activator, upper limit (up to about)
T1 construct: gene ACO2
T1 sequence (P16276 28-781): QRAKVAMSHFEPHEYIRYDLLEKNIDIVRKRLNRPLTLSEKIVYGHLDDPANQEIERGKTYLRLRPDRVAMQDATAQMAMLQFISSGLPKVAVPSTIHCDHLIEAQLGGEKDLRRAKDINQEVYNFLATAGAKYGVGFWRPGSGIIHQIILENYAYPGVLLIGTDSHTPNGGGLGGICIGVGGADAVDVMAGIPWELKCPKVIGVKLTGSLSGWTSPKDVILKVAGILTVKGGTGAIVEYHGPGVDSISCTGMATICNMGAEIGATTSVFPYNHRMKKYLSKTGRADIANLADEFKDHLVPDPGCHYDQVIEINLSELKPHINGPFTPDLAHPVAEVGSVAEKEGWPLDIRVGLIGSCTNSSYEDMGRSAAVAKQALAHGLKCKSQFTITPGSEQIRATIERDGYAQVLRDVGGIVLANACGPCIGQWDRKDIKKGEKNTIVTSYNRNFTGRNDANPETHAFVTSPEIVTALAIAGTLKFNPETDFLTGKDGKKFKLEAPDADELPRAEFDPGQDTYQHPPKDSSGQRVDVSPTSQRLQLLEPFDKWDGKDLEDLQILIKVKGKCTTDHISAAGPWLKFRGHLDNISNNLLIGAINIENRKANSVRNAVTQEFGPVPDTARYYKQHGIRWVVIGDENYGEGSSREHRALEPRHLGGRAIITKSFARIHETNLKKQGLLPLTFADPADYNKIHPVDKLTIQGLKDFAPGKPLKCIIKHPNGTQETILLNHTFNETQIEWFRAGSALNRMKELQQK

m-aconitase [2] = molecular target: T1, m-aconitase; experiment: as above; format: biochemical; conditions: pH 8.0, 25 °C, 20 mM citrate; 10 min pre-incubation, no H2O2; activator
m-aconitase [3] = molecular target: T1, m-aconitase; experiment: as above; format: biochemical; conditions: pH 8.0, 25 °C, 20 mM citrate; 10 min pre-incubation, no H2O2; activator, upper limit (up to about); remark: listed apart in the source
DWM-aconitase = tested on: T2, DWM-aconitase; conditions: 100 mM Tris-HCl pH 8.0, 0.1% Triton X-100, 25 °C, 1 mM NADP+, 5 mM MnCl2; citrate 0.5–20 mM; lysed mitochondria
T2 construct: gene ACO

In the case of COc1cc(/C=C/C(=O)O)ccc1O [ferulic acid], the “% activation at 100-150 μM” value (m-aconitase [1]) is reported as ~ 10%.
In the case of O=c1cc(-c2ccc(O)cc2)oc2cc(O)cc(O)c12 [apigenin], the “% activation at 50-150 μM” value (m-aconitase [2]) is reported as ~ 10%.
With O=c1c(O)c(-c2ccc(O)c(O)c2)oc2cc(O)cc(O)c12 [quercetin] the “% activation at 150 μM” value (m-aconitase [3]) was ~ 20%.
O=C(O)CC(O)(CC(=O)O)C(=O)O [citrate] gave a Km (DWM-aconitase) of 4.8 ± 0.9 mM.
